Experimental findings from paper PMC7305236, “The atypical chemokine receptor ACKR3/CXCR7 is a broad-spectrum scavenger for opioid peptides” (Nature Communications, 2020) are described below.

Structures are written as SMILES. Like-named read-outs stand apart in the source and are kept apart here.

Assay [1] addresses T1, CCR6 (Homo sapiens, UniProt P51684).
T1 construct: expressed in transfected cells
T1 sequence (P51684 1-374): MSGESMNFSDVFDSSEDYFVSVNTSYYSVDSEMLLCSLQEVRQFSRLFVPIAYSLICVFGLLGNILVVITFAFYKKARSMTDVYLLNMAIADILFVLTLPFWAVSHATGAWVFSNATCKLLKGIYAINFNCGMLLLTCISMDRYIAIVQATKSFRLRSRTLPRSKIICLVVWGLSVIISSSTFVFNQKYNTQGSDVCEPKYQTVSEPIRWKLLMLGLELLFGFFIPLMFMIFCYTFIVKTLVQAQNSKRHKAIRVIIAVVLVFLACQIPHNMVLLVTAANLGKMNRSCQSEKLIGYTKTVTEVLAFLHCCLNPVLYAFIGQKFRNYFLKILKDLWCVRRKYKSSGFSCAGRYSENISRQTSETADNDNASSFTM
The assay is described as follows: Figure S2a opioid peptide screen on chemokine receptors. In kind it is cell-based. Set-up: dose or concentration left out as unconfirmed.

Assay [2] has as its target T2, CXCR1 (Homo sapiens, UniProt P25024).
T2 construct: expressed in transfected cells
T2 sequence (P25024 1-350): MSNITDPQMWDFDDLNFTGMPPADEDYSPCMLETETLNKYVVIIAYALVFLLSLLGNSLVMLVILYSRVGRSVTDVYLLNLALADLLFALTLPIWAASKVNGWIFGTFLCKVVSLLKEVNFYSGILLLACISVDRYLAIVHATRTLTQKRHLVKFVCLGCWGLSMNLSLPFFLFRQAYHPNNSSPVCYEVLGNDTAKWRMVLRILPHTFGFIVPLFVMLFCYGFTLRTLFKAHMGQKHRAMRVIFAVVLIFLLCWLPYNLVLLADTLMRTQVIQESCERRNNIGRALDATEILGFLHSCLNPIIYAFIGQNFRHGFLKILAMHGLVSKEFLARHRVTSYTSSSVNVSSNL
The assay is described as above. In kind it is cell-based. Also noted: dose or concentration left out as unconfirmed.

The target in assay [3] is CCR8 (Homo sapiens, UniProt P51685). The description is as above. Also noted: dose or concentration left out as unconfirmed. The note with it: read-out: CCR8 activity, ctrl+ = 100, Figure S2a.
In assay [4] the target is KOR (Homo sapiens, UniProt P41145). The assay is described as follows: Figure 6h, KOR, DMSO vs Bafilomycin treatment. It is filed as cell-based. Set-up: expressed in transfected cells; host or cells: U87 (human glioblastoma). Particulars: n = 3 or 4 as in cell.
Assay [5] deals with T3, ACKR (Homo sapiens, UniProt P25106).
T3 construct: expressed in transfected cells; host or cells: U87 cells (human glioblastoma)
The assay is described as follows: Figure 6h, ACKR, DMSO vs Bafilomycin treatment. The note with it: n = 3 or 4 as in cell. In kind it is cell-based.

Assay [6] deals with T4, CCR1 (Homo sapiens, UniProt P32246).
T4 construct: expressed in transfected cells
T4 sequence (P32246 1-355): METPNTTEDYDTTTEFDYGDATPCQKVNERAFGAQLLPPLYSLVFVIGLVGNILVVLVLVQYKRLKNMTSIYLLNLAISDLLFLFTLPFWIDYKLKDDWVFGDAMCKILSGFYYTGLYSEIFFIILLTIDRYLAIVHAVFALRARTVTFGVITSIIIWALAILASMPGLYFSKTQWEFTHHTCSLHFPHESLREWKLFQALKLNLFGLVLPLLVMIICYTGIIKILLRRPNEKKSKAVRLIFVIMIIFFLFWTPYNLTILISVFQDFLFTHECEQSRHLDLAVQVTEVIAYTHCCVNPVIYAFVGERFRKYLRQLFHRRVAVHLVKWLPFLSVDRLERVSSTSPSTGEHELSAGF
The assay is described as follows: Figure S2a opioid peptide screen on chemokine receptors. It is filed as cell-based. Set-up: dose or concentration left out as unconfirmed.

Assay [7] addresses T5, CCR9 (Homo sapiens, UniProt P51686).
T5 construct: expressed in transfected cells
T5 sequence (P51686 1-369): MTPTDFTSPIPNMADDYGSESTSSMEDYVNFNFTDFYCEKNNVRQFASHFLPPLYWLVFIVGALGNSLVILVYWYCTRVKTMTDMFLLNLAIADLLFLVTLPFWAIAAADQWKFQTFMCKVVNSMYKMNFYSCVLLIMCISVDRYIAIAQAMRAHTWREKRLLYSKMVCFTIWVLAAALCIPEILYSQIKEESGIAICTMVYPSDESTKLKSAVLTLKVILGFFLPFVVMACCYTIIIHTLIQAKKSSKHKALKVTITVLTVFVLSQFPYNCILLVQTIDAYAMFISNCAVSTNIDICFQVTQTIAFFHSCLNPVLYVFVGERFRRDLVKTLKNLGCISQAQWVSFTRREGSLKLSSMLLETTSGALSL
The description is as above. Also noted: dose or concentration left out as unconfirmed. In kind it is cell-based.

Assay [8] deals with ACKR3 (Homo sapiens, UniProt P25106). The assay is described as follows: cell-based. Also noted: dose or concentration left out as unconfirmed. Particulars: read-out: ACKR3 activity, ctrl+ = 100, Figure S2a.
Setting [9] is: replicate 1, read-out: CCR6 activity, ctrl+ = 100.
Where [10] appears, read: replicate 2, read-out: CCR6 activity, ctrl+ = 100.
The mark [11] stands for this setting: replicate 3, read-out: CCR6 activity, ctrl+ = 100.
Where [12] appears, read: replicate 1, read-out: CXCR1 activity, ctrl+ = 100.
Where [13] appears, read: replicate 2, read-out: CXCR1 activity, ctrl+ = 100.
The mark [14] stands for this setting: replicate 3, read-out: CXCR1 activity, ctrl+ = 100.
[15] abbreviates: 'DMSO vs Bafilomycin treatment'.
[16] abbreviates: first of two columns under 'DMSO vs Bafilomycin treatment' (presumably DMSO).
[17] abbreviates: replicate 1, read-out: CCR1 activity, ctrl+ = 100.
Setting [18] is: replicate 2, read-out: CCR1 activity, ctrl+ = 100.
[19] abbreviates: replicate 3, read-out: CCR1 activity, ctrl+ = 100.
Setting [20] is: replicate 1, read-out: CCR9 activity, ctrl+ = 100.
The mark [21] stands for this setting: replicate 2, read-out: CCR9 activity, ctrl+ = 100.
Where [22] appears, read: replicate 3, read-out: CCR9 activity, ctrl+ = 100.

ACKR3, sequence (P25106 whole entry): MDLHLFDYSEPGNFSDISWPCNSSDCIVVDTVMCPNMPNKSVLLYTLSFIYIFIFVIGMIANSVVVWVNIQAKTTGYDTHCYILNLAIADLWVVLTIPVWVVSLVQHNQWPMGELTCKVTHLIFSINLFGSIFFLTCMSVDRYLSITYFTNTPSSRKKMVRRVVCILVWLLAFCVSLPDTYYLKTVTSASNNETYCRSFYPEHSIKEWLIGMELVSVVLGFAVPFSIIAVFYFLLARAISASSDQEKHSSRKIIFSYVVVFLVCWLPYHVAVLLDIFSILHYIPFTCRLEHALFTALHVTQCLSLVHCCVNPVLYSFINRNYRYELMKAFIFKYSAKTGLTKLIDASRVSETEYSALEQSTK
CCR8, sequence (P51685 whole entry): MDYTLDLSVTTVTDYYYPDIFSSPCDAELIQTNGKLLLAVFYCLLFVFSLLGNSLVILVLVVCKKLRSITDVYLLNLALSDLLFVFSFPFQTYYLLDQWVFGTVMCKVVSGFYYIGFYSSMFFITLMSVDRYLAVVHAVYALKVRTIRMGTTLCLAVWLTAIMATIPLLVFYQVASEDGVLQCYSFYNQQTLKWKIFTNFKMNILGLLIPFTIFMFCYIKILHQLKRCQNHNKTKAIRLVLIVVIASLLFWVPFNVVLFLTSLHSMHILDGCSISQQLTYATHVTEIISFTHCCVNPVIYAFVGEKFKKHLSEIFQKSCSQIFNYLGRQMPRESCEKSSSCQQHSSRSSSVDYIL
T3 sequence (P25106 whole entry): as the sequence (P25106 whole entry) above
KOR, sequence (P41145 whole entry): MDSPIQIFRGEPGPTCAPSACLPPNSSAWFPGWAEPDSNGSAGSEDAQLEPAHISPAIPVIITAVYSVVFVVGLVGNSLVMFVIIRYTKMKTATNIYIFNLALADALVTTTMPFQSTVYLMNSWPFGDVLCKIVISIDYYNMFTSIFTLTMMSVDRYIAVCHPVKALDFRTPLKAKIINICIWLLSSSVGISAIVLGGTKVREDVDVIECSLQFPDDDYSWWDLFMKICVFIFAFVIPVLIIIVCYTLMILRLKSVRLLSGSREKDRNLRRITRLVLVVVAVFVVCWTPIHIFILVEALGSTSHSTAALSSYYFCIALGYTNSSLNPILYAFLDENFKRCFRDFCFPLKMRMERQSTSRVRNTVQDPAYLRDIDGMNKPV

For `CC(C)C[C@H](NC(=O)[C@H](Cc1ccccc1)NC(=O)CNC(=O)CNC(=O)[C@@H](N)Cc1ccc(O)cc1)C(=O)N[C@@H](CCCN=C(N)N)C(=O)N[C@@H](CCCN=C(N)N)C(=O)N[C@@H](CCC(N)=O)C(=O)N[C@@H](Cc1ccccc1)C(=O)N[C@@H](CCCCN)C(=O)N[C@H](C(=O)N[C@H](C(=O)N[C@H](C(=O)O)[C@@H](C)O)C(C)C)C(C)C` [Dynorphin B], the activation in assay [1] (setting [9]) was -0.194%; in assay [1] (setting [10]) it was -0.375%; in assay [1] (setting [11]), -3.12%; in assay [2] (setting [12]), -0.474%; in assay [2] (setting [13]) it was -0.947%; in assay [2] (setting [14]), 0.71%. Besides, the activation in assay [3] (replicate 1) is 2.83%; in assay [3] (replicate 2), -25.3%; in assay [3] (replicate 3) it was 18.8%; in assay [6] (setting [17]) it was -23.7%; in assay [6] (setting [18]) it was -13.7%; in assay [6] (setting [19]), 27.5%. Besides, the activation in assay [7] (setting [20]) was -1.23%; in assay [7] (setting [21]) it was -1.3%; in assay [7] (setting [22]), 15.7%; in assay [8] (replicate 1), 87%; in assay [8] (replicate 2), 63.5%; in assay [8] (replicate 3) it was 94.7%. Moreover, the “Mean ± SEM (Figure 6h, KOR)” value was 30,69 ± 2,71, n=3 in assay [4] (setting [15]) and 28,51 ± 2,354, n=3 in assay [4] (setting [16]). In addition, the “Mean ± SEM (Figure 6h, ACKR)” value in assay [5] (setting [15]) is listed as 90,67 ± 2,557, n=3; in assay [5] (setting [16]) it was 114,2 ± 9,487, n=3.

On to `CSCC[C@H](NC(=O)[C@H](Cc1ccccc1)NC(=O)CNC(=O)CNC(=O)[C@@H](N)Cc1ccc(O)cc1)C(=O)N[C@@H](CCCNC(=N)N)C(=O)N[C@@H](CCCNC(=N)N)C(=O)N[C@H](C(=O)NCC(=O)N[C@@H](CCCNC(=N)N)C(=O)N1CCC[C@H]1C(=O)N[C@@H](CCC(=O)O)C(=O)N[C@@H](Cc1c[nH]c2ccccc12)C(=O)N[C@@H](Cc1c[nH]c2ccccc12)C(=O)N[C@@H](CCSC)C(=O)N[C@@H](CC(=O)O)C(=O)N[C@@H](Cc1ccc(O)cc1)C(=O)N[C@@H](CCC(N)=O)C(=O)N[C@@H](CCCCN)C(=O)N[C@@H](CCCNC(=N)N)C(=O)N[C@@H](Cc1ccc(O)cc1)C(=O)NCC(=O)O)C(C)C` [BAM22], for which the activation was -2.07% in assay [1] (setting [9]); -2.99% in assay [1] (setting [10]); -1.86% in assay [1] (setting [11]); 0.211% in assay [2] (setting [12]); 0.0913% in assay [2] (setting [13]); -0.539% in assay [2] (setting [14]). Also, the activation is -18.7% in assay [3] (replicate 1); -21.3% in assay [3] (replicate 2); -4.1% in assay [3] (replicate 3); -7.62% in assay [6] (setting [17]); 9.7% in assay [6] (setting [18]); 10.5% in assay [6] (setting [19]). In addition, the activation in assay [7] (setting [20]) was -0.202%; in assay [7] (setting [21]), -2.13%; in assay [7] (setting [22]), 5.56%; in assay [8] (replicate 1), 104%; in assay [8] (replicate 2) it was 61.3%; in assay [8] (replicate 3), 104%.

In the case of `CSCC[C@H](NC(=O)[C@H](Cc1ccccc1)NC(=O)CNC(=O)CNC(=O)[C@@H](N)Cc1ccc(O)cc1)C(=O)N[C@@H](CCCNC(=N)N)C(=O)N[C@@H](CCCNC(=N)N)C(=O)N[C@H](C(N)=O)C(C)C` [Adrenorphin], the activation in assay [1] (setting [9]) was -3.87%; in assay [1] (setting [10]), 1.08%; in assay [1] (setting [11]), -1.64%; in assay [2] (setting [12]), 0.451%; in assay [2] (setting [13]) it was 0.739%; in assay [2] (setting [14]) it was -0.427%. The activation in assay [3] (replicate 1) is -17.4%; in assay [3] (replicate 2), -15.7%; in assay [3] (replicate 3) it was -4%; in assay [6] (setting [17]), -15%; in assay [6] (setting [18]), 8.25%; in assay [6] (setting [19]), -9.95%. Also, the activation is 0.345% in assay [7] (setting [20]); -0.997% in assay [7] (setting [21]); 2.74% in assay [7] (setting [22]); 111% in assay [8] (replicate 1); 55.3% in assay [8] (replicate 2); 84.5% in assay [8] (replicate 3).
